These results are taken from patent publication US11993786B2, “Methods and compositions for generating pacemaker cells” (TAIPEI VETERANS GENERAL HOSPITAL, priority 2017, dated 2024).

The subject of assay [1] is β-adrenergic receptor. Put plainly: Sympathetic stimulation of beating rate with isoproterenol. Particulars: 1 μM isoproterenol. The assay is classed as cell-based, rat. On the procedure:
(§1) Seeded cardiomyocytes in Tyrode's solution were loaded with Ca^2+ indicators (10 μM Fluo-3/AM for cardiomyocytes; Calbiochem, San Diego, CA, USA) and incubated at room temperature for 30 minutes in the dark. Fluorescence imaging was performed with a laser scanning confocal microscope (Olympus IX71, Olympus America). The fluorescence density (F) was normalized against the baseline fluorescence (F0) to determine the transient [Ca^2+]i changes, which had excluded variations in the fluorescence intensity because of different volumes of injected dye. Offline analysis was performed using Olympus IX71 and ImageJ.
Isoproterenol is a non-selective β-adrenergic receptor agonist, which is used for pharmacological sympathetic stimulation to evaluate the physiological sympathetic regulation of sinus node. In this example, the functional regulations of autonomic neurotransmitters in SF-treated cardiomyocytes were investigated using the isoproterenol treatment (1 μM).

Assay [2] concerns the target T1, HCN4 (Rattus norvegicus, UniProt Q9JKA7).
T1 construct: endogenous in cells; host or cells: NRVMs (primary neonatal rat ventricular cardiomyocytes) on silk fibroin film or fibronectin control
T1 sequence (Q9JKA7 1-1198): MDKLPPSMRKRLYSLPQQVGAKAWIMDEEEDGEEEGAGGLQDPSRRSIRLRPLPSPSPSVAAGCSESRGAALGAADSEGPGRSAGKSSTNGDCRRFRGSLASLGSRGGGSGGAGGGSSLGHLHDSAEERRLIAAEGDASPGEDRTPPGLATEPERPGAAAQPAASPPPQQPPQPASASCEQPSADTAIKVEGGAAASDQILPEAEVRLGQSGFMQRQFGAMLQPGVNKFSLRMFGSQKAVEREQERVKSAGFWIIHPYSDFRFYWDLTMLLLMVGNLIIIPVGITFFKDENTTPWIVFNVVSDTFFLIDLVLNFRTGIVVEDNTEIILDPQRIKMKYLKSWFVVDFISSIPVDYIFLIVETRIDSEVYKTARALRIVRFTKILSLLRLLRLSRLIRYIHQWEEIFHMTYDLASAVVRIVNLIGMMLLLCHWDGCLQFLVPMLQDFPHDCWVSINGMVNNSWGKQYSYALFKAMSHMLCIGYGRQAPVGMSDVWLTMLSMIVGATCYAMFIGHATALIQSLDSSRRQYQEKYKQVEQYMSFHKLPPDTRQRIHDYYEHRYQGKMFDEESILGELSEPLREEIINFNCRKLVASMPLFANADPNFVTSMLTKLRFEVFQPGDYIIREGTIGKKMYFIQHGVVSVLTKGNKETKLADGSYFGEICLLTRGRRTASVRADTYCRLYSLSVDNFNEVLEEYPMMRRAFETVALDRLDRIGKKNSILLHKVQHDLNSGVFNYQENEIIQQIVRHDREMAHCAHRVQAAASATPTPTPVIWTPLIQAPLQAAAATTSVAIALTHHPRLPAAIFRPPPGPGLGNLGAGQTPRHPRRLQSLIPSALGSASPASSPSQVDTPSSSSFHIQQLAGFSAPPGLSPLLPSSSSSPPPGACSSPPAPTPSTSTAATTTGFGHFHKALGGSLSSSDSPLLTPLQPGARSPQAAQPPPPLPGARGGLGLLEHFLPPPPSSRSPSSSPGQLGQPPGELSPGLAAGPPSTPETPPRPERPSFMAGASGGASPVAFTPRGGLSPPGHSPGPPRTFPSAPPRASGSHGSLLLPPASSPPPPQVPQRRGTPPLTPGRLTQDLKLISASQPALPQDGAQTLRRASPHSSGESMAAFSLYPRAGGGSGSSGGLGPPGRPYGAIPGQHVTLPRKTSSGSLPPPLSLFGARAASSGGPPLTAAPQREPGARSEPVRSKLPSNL
The assay is described as follows: Effect of HCN4 inhibitor on spontaneous beating rate (calcium transient cycling). Particulars: 3 μM ivabradine. Format: cell-based. On the procedure:
as §1
The spontaneous beating is tightly regulated by HCN4 channels in native SAN pacemakers. Therefore, in this example, cells from Example 1 were treated with 3 μM ivabradine, a selective HCN4 inhibitor, to evaluate the impact of HCN4 on the function of SF-treated cardiomyocytes.

Take `CC(C)NCC(O)c1ccc(O)c(O)c1` (stereo not drawn) [isoproterenol]: the beating rate in assay [1] (SF-treated cardiomyocytes, n=10, P=0.001 vs control) is 162.4±9.6 bpm; in assay [1] (control cells), 87.6±14.7 bpm. The “increment of beating rate without vs with isoproterenol” value turned out to be 87.1±12.4 bpm in assay [1] (SF-treated cells, n=10, P=0.02 vs control) and 49.2±8.3 bpm in assay [1] (control cells).

Turning to `COc1cc2c(cc1OC)CC(=O)N(CCCN(C)C[C@H]1Cc3cc(OC)c(OC)cc31)CC2` [ivabradine], the “suppression of beating rate (cycling rate of spontaneous calcium transient)” value in assay [2] (SF-treated cardiomyocytes, vs baseline, n=15, P=0.002) came to 57%. Besides, in assay [2] (control cells, n=32, P=0.24), the “beating rate vs baseline” value is reported as “did not differ significantly”.
